Tested on: HIV-1 (H9IIIB strain)
Experiment: Cell-Based HIV Infection Assay Using a Reporter (MT4-GFP cells)
Conditions: Human immunodeficiency virus 1, inflection point (IP) of viral growth inhibition; MT4-GFP cells infected with HIV-1 H9IIIB; 50% normal human serum; mean of at least two independent experiments; read-out: Cell Based IP (50% NHS)
Description: Cell-Based HIV Infection Assay Using a Reporter (“Cell-Based”):
MT4-GFP cells contain a stably integrated HIV long terminal repeat promoter directing the transcription of green fluorescent protein (GFP). When HIV infects the cell, GFP is produced and the cell becomes green. MT4-GFP cells (250,000 cells/mL) were bulk-infected with HIV-1 (H9IIIB strain) at low multiplicity of infection (MOI) in RPM 1640 media, supplemented with 10% FBS for 24 h. Cells were then washed once in RPMI 1640 plus 10% FBS and resuspended in RPMI plus 50% normal human serum (NHS). Test compounds were serial-diluted in DMSO using an ECHO liquid dispenser. A control well included a combination of three HIV drugs (an inhibitor of HIV protease, integrase strand transfer and a non-nucleoside reverse transcriptase inhibitor; triple drug). The infected MT4-GFP cells were added to a 384-well poly-D-lysine coated black plate with clear bottom in which the diluted test compounds were placed. The cells were seeded in the plate at 8,000 cells per well and the final DMSO concentration was 0.4%. Infected cells were quantified at both 24 and 48 h post incubation using an Acumen eX3 plate reader. Viral reproductive ratio (R0) was determined using the number of infected cells at 48 h divided by the number of infected cells at 24 h. Percent viral growth inhibition was calculated by [1−(R−Rtripledrug)/(RDMSO−Rtripledrug)]*100. Compound potency inflection point (IP) was determined with use of a 4-parameter dose response curve analysis.
Data shown in the table reflects the mean of at least two independent experiments.

SMILES | EC50 [nM]
N[C@H](C(=O)Nc1cccc(F)c1CC[C@H]1CN[C@@H]2CCCS(=O)(=O)N1C2)[C@@H](c1ccc(Cl)cc1)c1csc(C(F)(F)F)n1 [Example 251, (βR)-4-chloro-N-(2-{2-[(6R,9S)-2,2-dioxido-2-thia-1,7-diazabicyclo[4.3.1]dec-9-yl]ethyl}-3-fluorophenyl)-β-[2-(trifluoromethyl)-1,3-thiazol-4-yl]-L-phenylalaninamide] | 9.2
CO[C@H]1CC[C@](c2ccc(F)cc2)([C@H](N)C(=O)Nc2cccc(F)c2CC[C@H]2CN[C@@H]3CCCS(=O)(=O)N2C3)CC1 [Example 205, (2S)-2-amino-N-(2-{2-[(6R,9S)-2,2-dioxido-2-thia-1,7-diazabicyclo[4.3.1]dec-9-yl]ethyl}-3-fluorophenyl)-2-[trans-1-(4-fluorophenyl)-4-methoxycyclohexyl]ethanamide] | 130
COC(=O)N[C@H](C(=O)N[C@H]1CCC[C@@H]1CC[C@H]1CN[C@@H]2CCCS(=O)(=O)N1C2)[C@@H](c1ccc(Cl)cc1)C1CCOCC1 [Example 58, methyl [(1S,2R)-2-(4-chlorophenyl)-1-{[(1S,2R)-2-{2-[(6R,9S)-2,2-dioxido-2-thia-1,7-diazabicyclo[4.3.1]dec-9-yl]ethyl}cyclopentyl]carbamoyl}-2-(tetrahydro-2H-pyran-4-yl)ethyl]carbamate] | 59
CC1(C)C[C@H]([C@H](c2ccc(Cl)cc2)[C@H](N)C(=O)Nc2cccc(F)c2CC[C@H]2CN[C@@H]3CCS(=O)(=O)N2C3)CCO1 [Example 275, (2S,3R)-2-amino-3-(4-chlorophenyl)-3-((R)-2,2-dimethyltetrahydro-2H-pyran-4-yl)-N-(2-(2-((5R,8S)-2,2-dioxido-2-thia-1,6-diazabicyclo[3.3.1]nonan-8-yl)ethyl)-3-fluorophenyl)propanamide] | 25
CCO[C@H]1CC[C@H]([C@H](c2ccc(F)cc2)[C@H](N)C(=O)Nc2cccc(F)c2CC[C@H]2CN[C@@H]3CCCS(=O)(=O)N2C3)CC1 [Example 212, (βR)-N-(2-{2-[(6R,9S)-2,2-dioxido-2-thia-1,7-diazabicyclo[4.3.1]dec-9-yl]ethyl}-3-fluorophenyl)-β-[(1r,4R)-4-ethoxycyclohexyl]-4-fluoro-L-phenylalaninamide] | 7
COC(=O)N[C@H](C(=O)Nc1cccc(F)c1CCC1CNC2CCCS(=O)(=O)N1C2)[C@@H](c1ccc(F)cc1)c1cc(F)cc(F)c1 (stereo partly drawn) [Example 35, methyl [(1S,2S)-2-(3,5-difluorophenyl)-1-({2-[2-(2,2-dioxido-2-thia-1,7-diazabicyclo[4.3.1]dec-9-yl)ethyl]-3-fluorophenyl}carbamoyl)-2-(4-fluorophenyl)ethyl]carbamate] | 3.8
COC(=O)N[C@H](C(=O)Nc1cccc(F)c1CCC1CNC2CCCS(=O)(=O)N1C2)[C@@H](c1ccc(F)cc1)c1cccc(C2CC2)c1 (stereo partly drawn) [Example 52, methyl [(1S,2S)-2-(3-cyclopropylphenyl)-1-({2-[2-(2,2-dioxido-2-thia-1,7-diazabicyclo[4.3.1]dec-9-yl)ethyl]-3-fluorophenyl}carbamoyl)-2-(4-fluorophenyl)ethyl]carbamate] | 72
COC(=O)N[C@H](C(=O)Nc1ccc(F)c(F)c1CC[C@H]1CN[C@@H]2CCCS(=O)(=O)N1C2)[C@@H](c1ccc(F)cc1)C1C[C@@H](C)O[C@@H](C)C1 (stereo partly drawn) [Example 228, Methyl [(1S,2R)-2-[(2R,6S)-2,6-dimethyltetrahydro-2H-pyran-4-yl]-1-[(2-{2-[(6R,9S)-2,2-dioxido-2-thia-1,7-diazabicyclo[4.3.1]dec-9-yl]ethyl}-3,4-difluorophenyl)carbamoyl]-2-(4-fluorophenyl)ethyl]carbamate] | 10
COC(=O)N[C@H](C(=O)Nc1cccc(F)c1CC[C@H]1CNC2CCCS(=O)(=O)N1C2)[C@@H](c1ccc(Cl)cc1)C1CCS(=O)(=O)CC1 (stereo partly drawn) [Example 159, methyl {(1S,2R)-2-(4-chlorophenyl)-2-(1,1-dioxidotetrahydro-2H-thiopyran-4-yl)-1-[(2-{2-[(9S)-2,2-dioxido-2-thia-1,7-diazabicyclo[4.3.1]dec-9-yl]ethyl}-3-fluorophenyl)carbamoyl]ethyl}carbamate] | 720
CO[C@H]1CC[C@H]([C@H](c2ccc(Cl)cc2)[C@H](N)C(=O)Nc2cncc(F)c2CC[C@H]2CN[C@@H]3CCCS(=O)(=O)N2C3)CC1 [Example 239, (2S,3R)-2-amino-3-(4-chlorophenyl)-N-(4-(2-((6R,9S)-2,2-dioxido-2-thia-1,7-diazabicyclo[4.3.1]decan-9-yl)ethyl)-5-fluoropyridin-3-yl)-3-((1r,4R)-4-methoxycyclohexyl)propanamide] | 5.6
CC1(C)CC([C@H](c2ccc(Cl)cc2)[C@H](NC(=O)CN)C(=O)N[C@H]2CCC[C@@H]2CC[C@H]2CN[C@@H]3CCCS(=O)(=O)N2C3)CCO1 (stereo partly drawn) [Example 232, glycyl-(βR)-4-chloro-β-(2,2-dimelhyltetrahydro-2H-pyran-4-yl)-N-[(1S,2R)-2-{2-[(6R,9S)-2,2-dioxido-2-thia-1,7-diazabicyclo[4.3.1]dec-9-yl]ethyl}cyclopentyl]-L-phenylalaninamide] | 2500
CS(=O)(=O)N1CCC(c2ccc(Cl)cc2)([C@H](N)C(=O)Nc2cccc(F)c2CC[C@H]2CN[C@@H]3CCCS(=O)(=O)N2C3)CC1 [Example 176, (2S)-2-amino-2-[4-(4-chlorophenyl)-1-(methylsulfonyl)piperidin-4-yl]-N-(2-{2-[(6R,9S)-2,2-dioxido-2-thia-1,7-diazabicyclo[4.3.1]dec-9-yl]ethyl}-3-fluorophenyl)ethanamide] | 150
COC(=O)N[C@H](C(=O)Nc1cccc(F)c1CC[C@H]1CN[C@@H]2CCCS(=O)(=O)N1C2)[C@]1(c2ccc(F)cc2)CC[C@@H](OC)CC1 [Example 210, methyl {(1S)-2-[(2-{2-[(6R,9S)-2,2-dioxido-2-thia-1,7-diazabicyclo[4.3.1]dec-9-yl]ethyl}-3-fluorophenyl)amino]-1-[trans-1-(4-fluorophenyl)-4-methoxycyclohexyl]-2-oxoethyl}carbamate] | 16
N[C@H](C(=O)Nc1cccc(F)c1CC[C@H]1CN[C@@H]2CCCS(=O)(=O)N1C2)[C@@H](c1ccc(Cl)cc1)c1nc(C(F)(F)F)cs1 [Example 264, (βR)-4-chloro-N-(2-{2-[(6R,9S)-2,2-dioxido-2-thia-1,7-diazabicyclo[4.3.1]dec-9-yl]ethyl}-3-fluorophenyl)-β-[4-(trifluoromethyl)-1,3-thiazol-2-yl]-L-phenylalaninamide] | 6.9
N[C@H](C(=O)Nc1cncc(F)c1CC[C@H]1CN[C@@H]2CCCS(=O)(=O)N1C2)[C@@H](c1ccc(Cl)cc1)c1csc(C(F)(F)F)n1 [Example 269, (βR)-4-chloro-N-(4-{2-[(6R,9S)-2,2-dioxido-2-thia-1,7-diazabicyclo[4.3.1]dec-9-yl]ethyl}-5-fluoropyridin-3-yl)-β-[2-(trifluoromethyl)-1,3-thiazol-4-yl]-L-phenylalaninamide] | 5
COC(=O)N[C@H](C(=O)N[C@H]1CCCC[C@@H]1CC[C@H]1CN[C@@H]2CCCS(=O)(=O)N1C2)[C@@H](c1ccc(Cl)cc1)[C@@H]1CCOC(C)(C)C1 [Example 131, methyl [(1S,2R)-2-(4-chlorophenyl)-2-[(4R)-2,2-dimethyltetrahydro-2H-pyran-4-yl]-1-{[(1S,2R)-2-{2-[(6R,9S)-2,2-dioxido-2-thia-1,7-diazabicyclo[4.3.1]dec-9-yl]ethyl}cyclohexyl]carbamoyl}ethyl]carbamate] | 24
N[C@H](C(=O)Nc1cccc(F)c1CCC1CNC2CCCS(=O)(=O)N1C2)C(c1ccc(Cl)cc1)c1ccnc(C(F)(F)F)c1 (stereo in doubt) [Example 123, (βR)-4-chloro-N-{2-[2-(2,2-dioxido-2-thia-1,7-diazabicyclo[4.3.1]dec-9-yl)ethyl]-3-fluorophenyl}-β-[2-(trifluoromethyl)pyridin-4-yl]-L-phenylalaninamide] | 6.8
COC(=O)N[C@H](C(=O)Nc1cccc(F)c1CC[C@H]1CN[C@@H]2CCCS(=O)(=O)N1C2)[C@]1(c2ccc(Cl)cc2)CC[C@@H](OC)CC1 [Example 13, Methyl {(1S)-1-[trans-1-(4-chlorophenyl)-4-methoxycyclohexyl]-2-[(2-{2-[(6R,9S)-2,2-dioxido-2-thia-1,7-diazabicyclo[4.3.1]dec-9-yl]ethyl}-3-fluorophenyl)amino]-2-oxoethyl}carbamate] | 7.6
COC(=O)N[C@H](C(=O)N[C@H]1CCC[C@@H]1CC[C@H]1CN[C@@H]2CCCS(=O)(=O)N1C2)[C@@H](c1ccc(Cl)cc1)C1CCOC(C)(C)C1 (stereo partly drawn) [Example 29, Methyl [(1S,2R)-2-(4-chlorophenyl)-2-(2,2-dimethyltetrahydro-2H-pyran-4-yl)-1-{[(1S,2R)-2-{2-[(6R,9S)-2,2-dioxido-2-thia-1,7-diazabicyclo[4.3.1]dec-9-yl]ethyl}cyclopentyl]carbamoyl}ethyl]carbamate] | 23

From patent US10138255B2, “Piperazine derivatives as HIV protease inhibitors” (Merck Sharp & Dohme Corp., priority 2014, dated 2018)
